“Also recorded” adds a separate entry of the source.

Here are results for one compound from patent US6441027B1, “Method of regulating the female reproductive system through angiogenesis inhibitors” (Children's Medical Center Corporation, priority 1996, dated 2002).

The test system of data set [1] is bFGF induced neovascularization. Put plainly: Mouse corneal micropocket model, bFGF pellet. Format: in vivo. The note with it: mouse cornea, n=10/group, p<0.001. As for the experimental part:
To confirm that angiogenesis was being inhibited, AGM-1470 was tested in vivo. A mouse corneal micropocket model was used which was recently developed to model tumor angiogenesis. Pellets of bFGF or VEGF were implanted in the mouse cornea resulting in aggressive neovascularization. AGM-1470 inhibited the amount of bFGF or VEGF induced neovascularization by 47% or 62% respectively (n=10/group p<0.001).

The next data set has as its system decidual stromal cells. Put plainly: PCNA staining of decidua on E6. Type of data set: in vivo, mouse. As for the experimental part: To test this hypothesis, mice were treated with AGM-1470 on E1 and sacrificed at E6, a time point prior to placental formation. The uteri of the mice were examined by antibodies to Factor VIII and PCNA to determine if there was any difference in the degree of endometrial angiogenesis or the proliferative response of the decidua induced by trophoblast invasion. However, in the decidua there was a 50% decrease in the proliferation of stromal cells in the AGM-1470 treated mice as compared to control (PCNA staining/X630 field in control was 48%±3, n=4, versus 24%±5, n=4, P≦0.005 in AGM-1470 treated mice. See FIG. 4A and 4B). […]
To determine the rate of cellular proliferation, staining for proliferating cell nuclear antigen (PCNA) was performed. […] Positive staining was detected by using horse radish peroxidase-conjugated secondary (Dako) and tertiary (Dako) antibodies, and DAB as a chromagen. The PCNA labeling index was determined by counting the percentage of stained cells under light microscopy within selected 630× fields. A minimum of 1,000 cells were counted for each specimen.
In experiments with AGM-1470 treatment of pregnant mice, transverse sections through embryos contained within the uterus were stained. Microvessels density was determined at the intersite endometrium and PCNA was determined in the decidual stroma. […]

In another data set the test system is plugged mice. The data set is described as follows: Reversibility: remating after fetal resorption. Type of data set: in vivo, mouse. To be noted: 30 mg/kg on E1 (n=3) or E7 (n=3), remated six weeks after E18 laparotomy. As for the experimental part: To establish long-term safety, the course of recovery of the reproductive system after fetal resorption was studied. Six plugged mice were injected with 30 mg/kg AGM-1470 on E1 (n=3) or E7 (n=3) and then anesthetized on E18 in a methoxyflurane (Pittman-Moore, Mandelein, Ill.) chamber so that a laparotomy could be performed. The uteri were inspected to confirm the presence of resorption cites. The incisions were closed with a running 3-0 ethelon™ black monofilament nylon suture (Ethicon, Somerville; N.J.). Animals were observed until fully recovered. After an additional six weeks the mice were remated to determine their ability to become inseminated and deliver a normal litter. […] Therefore, there is a functional recovery of the uterus after AGM-1470 treatment on E1 or E7.

Another data set relates to endometrium. The data set is described as follows: Cycling mice, chronic treatment: examination of the uterus. Format: in vivo, mouse. The method, then:
Mice were randomized and received either AGM-1470 30 mg/kg s.c. or saline 0.1 ml s.c. every other day for 16 days (approximately four estrous cycles). On the last of four days of treatment mice were housed with male mice to see if successful mating and conception would occur. On day 16 mice were weighed and sacrificed by cervical dislocation. The ovaries were resected enbloc, fixed in Carnoy's fixative, and embedded in paraffin according to standard histologic techniques. Sections were cut at 6 microns and stained with hematoxylin and eosin.
To determine microvessel density, Carnoy's-fixed tissue sections were pretreated with 2 microgram/ml Proteinase K (Boehringer Mannheim, Mannheim, Germany) at 37° Celsius for 15 minutes before staining with a rabbit polyclonal antibody against mouse factor VIII (Dako, Carpinteria, Calif.). Positive staining was detected by incubating sequentially with a secondary antibody against rabbit conjugated to horseradish peroxidase (Dako) and diaminobenzidine tetrahydrochloride (DAB) (Dako) as a chromagen. Sections were counterstained with methyl green (Schmid & Co., Stuttgart, Germany) and mounted in Permount (Fisher, Fair Lawn, N.J.). Microvessel density was determined by light microscopy. Each count was expressed as the number of microvessels identified within a selected field. Ten fields per section were counted.
To determine the rate of cellular proliferation, staining for proliferating cell nuclear antigen (PCNA) was performed. Carnoy's-fixed sections were pretreated in target unmasking fluid (Signet Laboratories, Dedham, Mass.) for 10 minutes at 90° for antigen retrieval. Immunohistochemical staining was performed with an anti-PCNA murine monoclonal antibody (Signet). Positive staining was detected by using horse radish peroxidase-conjugated secondary (Dako) and tertiary (Dako) antibodies, and DAB as a chromagen. The PCNA labeling index was determined by counting the percentage of stained cells under light microscopy within selected 630× fields. A minimum of 1,000 cells were counted for each specimen.
For staining of apoptotic cells, Carnoy's-fixed sections were treated according to the protocol of the Apoptag manufacturer (Oncor, Gaithersburg, Md.) except the pretreatment step with Proteinase K was omitted. After TdT labeling of specimens, positive staining was detected with a peroxidase-labeled antibody against deoxyuridine peroxidase substrate. Sections were counterstained as described above. The apoptotic index was determined by counting the percentage of stained cells under light microscopy within selected 630× fields. A minimum of 1,000 cells was counted for each specimen.
In experiments with AGM-1470 treatment of pregnant mice, transverse sections through embryos contained within the uterus were stained. Microvessels density was determined at the intersite endometrium and PCNA was determined in the decidual stroma. In experiments with AGM-1470 treatment of non-pregnant mice, transverse sections through the endometrium were stained for factor VIII, PCNA or apoptotic cells at the level of the endometrial lumen at its widest diameter. Statistical analysis was performed with ANOVA on ranked data to account for the expected variation of endometrial angiogenesis and glandular proliferation in the control due to different phases of the estrous cycle.

In the next data set the test system is female C57BL/6 mice. The data set is described as follows: Single dose on E(-1): implantation sites 6 days after mating. Format: in vivo, mouse. The note with it: single dose 30 mg/kg s.c. on E(-1), sacrificed 6 days after mating. As for the experimental part: FIGS. 7A and 7B show the ovaries and uteri from a control mouse or an AGM-treated mouse given a single dose of AGM-1470 on E(−1). Group housed female C57BL/6 mice were treated with a single injection of AGM-1470 (30 mg/kg, s.c.) and paired with male breeders. Mice who mated on the day after treatment were sacrificed 6 days after mating. Ovaries and uteri were removed en bloc, fixed and stained with hemotoxylin and eosin. […] Thin arrows indicate the corpora lutea.
In addition, the ovaries and uteri from control and single treatment mice were examined. Group housed female C57BL/6 mice were treated with a single injection of AGM-1470 (30 mg/kg, s.c.) and paired with male breeders. Mice who mated on the day after treatment were sacrificed 6 days after mating. Ovaries and uteri were removed en bloc, fixed and stained with hemotoxylin and eosin. […] Thin arrows indicate the corpora lutea.^1 The fat arrows indicate implantation sites in control not seen in treated animal.

For data set [2] the following is noted: 30 mg/kg s.c. every other day, greater than 100 days of therapy; cited from earlier work.
The mark [3] stands for this setting: 30 mg/kg every other day for 16 days.
Setting [4] is: 30 mg/kg every other day for 16 days, n=6.
The mark [5] stands for this setting: 30 mg/kg every other day for 16 days, vs control.

`CO[C@@H]1[C@H](OC(=O)NC(=O)CCl)CC[C@]2(CO2)[C@H]1[C@@]1(C)O[C@@H]1CC=C(C)C` [AGM-1470, O-chloroacetylcarbamoyl fumagillol]: the “inhibition of bFGF induced neovascularization” value in data set [1] was 47%. The “decrease in proliferation of decidual stromal cells vs control” value in the data set with decidual stromal cells (treated on E1, sacrificed E6) is 50%. For the same compound, in the data set on decidual stromal cells (treated on E1, sacrificed E6, n=4), the “PCNA staining/X630 field in decidua” value is reported as 24%±5. Also, the litters after remating entry with plugged mice is listed as “normal litters in all mice”. Besides, in the data set with endometrium (setting [3]), the “decrease in microvessel density (Factor VIII) vs control” value stood at 41%, the “decrease in number of proliferating vessels” value worked out at 71%, the “decrease in percentage of proliferating glandular epithelial cells (PCNA)” value was found to be 67% and the “decrease in proliferation rate of endometrial stromal cells (PCNA)” value is on record as 68%. Besides, in the data set on endometrium (30 mg/kg every other day for 16 days, n=5), the “number of proliferating vessels” value was 5±2 vessels/X630 field. In addition, in the data set on endometrium (setting [4]), the endometrial glands worked out at 3±2 glands/X250 field, the “percentage of proliferating glandular epithelial cells (PCNA)” value is 10%±3 and the “proliferation rate of endometrial stromal cells (PCNA)” value is 5% ±2. Further, in the data set with endometrium (setting [5]), the “apoptotic index (Apo-Tag staining)” value is “not significantly different” and the uterus thickness result is “consistently thinner”. Further, the “fewer endometrial glands than control” value in the data set with endometrium (30 mg/kg s.c. every other day for 16 days) is on record as 63%. For the same compound, in the data set with female C57BL/6 mice, the implantation sites result was “prevented implantation; also recorded: not seen in AGM-1470 treated animal”. The “toxicity of dosing schedule” value in data set [2] is on record as “no evident toxicity”.
